Test system: weedy Glycine max
Assay: Greenhouse trials, post-emergence herbicidal efficacy of L-glufosinate, other herbicides and their combinations (observed vs Colby expected)
Assay type: in vivo
Settings: for Control %: Table 1
Protocol: Greenhouse trials were carried out to evaluate the efficacy of the combination of L-glufosinate and the other herbicides on weedy Glycine max. The soil used was sandy clay loam—Sand: 68.0%; Silt: 8.0%; Clay: 24.0%. All treatments were in 3 replications per treatment with a spray volume of […].
The expected efficacy of a combination of L-glufosinate and the other herbicides was calculated using the well-established Colby method. Any difference between the observed and “expected” efficacy could be attributed to synergy between the two compounds.
In the Colby method, the expected (or predicted) response of a combination of herbicides is calculated by taking the product of the observed response for each individual component of the combination when applied alone, divided by 100, and subtracting this value from the sum of the observed response for each component when applied alone. An unexpected enhancement in efficacy of the combination is then determined by comparing the observed response of the combination to the expected (or predicted) response as calculated from the observed response of each individual component alone. If the observed response of the combination is greater than the expected (or predicted) response, or stated conversely, if the difference between the observed and expected response is greater than zero, then the combination is said to be synergistic or unexpectedly effective (Colby, S. R., Weeds, 1967(15), p. 20-22). The Colby method requires only a single dose of each herbicide applied alone and the mixture of both doses. The formula used to calculate the expected efficacy (EE) which was compared with the observed efficacy (OE) to determine the efficacy of the present invention is explained hereinbelow:
The expected efficacy for a combination of two active ingredients is as follows:
The expected efficacy for a combination of three active ingredients is as follows:
[…] The target weed was weedy Glycine max, and the concentration of the herbicide and the results are recorded in the table 1 below:

[1] = 14 DAA, dose a.i. g/h: L-glufosinate 150, oxyfluorfen 107.1, imazethapyr 75, carfentrazone 7.5
[2] = 21 DAA, dose a.i. g/h: L-glufosinate 150, oxyfluorfen 107.1, imazethapyr 75, carfentrazone 7.5
[3] = 28 DAA, dose a.i. g/h: L-glufosinate 150, oxyfluorfen 107.1, imazethapyr 75, carfentrazone 7.5
[4] = 35 DAA, dose a.i. g/h: L-glufosinate 150, oxyfluorfen 107.1, imazethapyr 75, carfentrazone 7.5

In the case of O=C(O)COc1ccc(Cl)cc1Cl [2,4-D], the “% control” value (Table 4, 7 DAA, g ai/h: L-glufosinate 150, 2,4-D 204) is reported as 41.7%, the “% control” value (Table 4, 14 DAA, g ai/h: L-glufosinate 150, 2,4-D 204) is reported as 42.7% and the “% control” value (Table 4, 21 DAA, g ai/h: L-glufosinate 150, 2,4-D 204) is reported as 50.7%. The “% control” value (Table 4, 28 DAA, g ai/h: L-glufosinate 150, 2,4-D 204) was 53.3% and the “% control” value (Table 4, 35 DAA, g ai/h: L-glufosinate 150, 2,4-D 204) was 48.3%.
In the case of Cc1nn(-c2cc(CC(Cl)C(=O)O)c(Cl)cc2F)c(=O)n1C(F)F (stereo not shown) [Carfentrazone, carfentrazone], the Control % [1] is reported as 50.3%, the Control % (14 DAA, dose a.i. g/h: carfentrazone 9.0, L-glufosinate 150) is reported as 51.7% and the Control % [2] is reported as 44.3%. It also gave a Control % (21 DAA, dose a.i. g/h: carfentrazone 9.0, L-glufosinate 150) of 51.0%, a Control % [3] of 44.3% and a Control % (28 DAA, dose a.i. g/h: carfentrazone 9.0, L-glufosinate 150) of 51.0%. It also gave a Control % [4] of 39.3% and a Control % (35 DAA, dose a.i. g/h: carfentrazone 9.0, L-glufosinate 150) of 46.7%.
In the case of CCSC(C)CC1CC(=O)C(/C(CC)=N/OC/C=C/Cl)=C(O)C1 (stereo not shown) [Clethodim, clethodim], the “% control” value (Table 6, 3 DAA, g ai/h: L-glufosinate 150, clethodim 45) is reported as 0%, the “% control” value (Table 6, 7 DAA, g ai/h: L-glufosinate 150, clethodim 45) is reported as 0% and the “% control” value (Table 6, 14 DAA, g ai/h: L-glufosinate 150, clethodim 45) is reported as 0%. The “% control” value (Table 6, 21 DAA, g ai/h: L-glufosinate 150, clethodim 45) was 0%, the “% control” value (Table 6, 28 DAA, g ai/h: L-glufosinate 150, clethodim 45) was 0% and the “% control” value (Table 6, 35 DAA, g ai/h: L-glufosinate 150, clethodim 45) was 0%.
With C#CCN1C(=O)COc2cc(F)c(N3C(=O)C4=C(CCCC4)C3=O)cc21 [Flumioxazin, flumioxazin] the “% control” value (Table 3, 3 DAA, g ai/h: L-glufosinate 150, flumioxazin 30) was 7.7%, the “% control” value (Table 3, 7 DAA, g ai/h: L-glufosinate 150, flumioxazin 30) was 31.7% and the “% control” value (Table 3, 21 DAA, g ai/h: L-glufosinate 150, flumioxazin 30) was 40%. For the same compound, the “% control” value (Table 3, 28 DAA, g ai/h: L-glufosinate 150, flumioxazin 30) was 40% and the “% control” value (Table 3, 35 DAA, g ai/h: L-glufosinate 150, flumioxazin 30) was 30%.
For O=C(O)CNCP(=O)(O)O [Glyphosate, glyphosate], the “% control” value (Table 2, 3 DAA, g ai/h: L-glufosinate 150, glyphosate 379) was 0%, the “% control” value (Table 2, 7 DAA, g ai/h: L-glufosinate 150, glyphosate 379) was 0% and the “% control” value (Table 2, 14 DAA, g ai/h: L-glufosinate 150, glyphosate 379) was 0%. The “% control” value (Table 2, 21 DAA, g ai/h: L-glufosinate 150, glyphosate 379) was 0%, the “% control” value (Table 2, 28 DAA, g ai/h: L-glufosinate 150, glyphosate 379) was 0% and the “% control” value (Table 2, 35 DAA, g ai/h: L-glufosinate 150, glyphosate 379) was 0%.
CC(Oc1ccc(Oc2ncc(C(F)(F)F)cc2Cl)cc1)C(=O)O (stereo not shown) [Haloxyfop, haloxyfop] was tested, and the “% control” value (Table 7, 3 DAA, g ai/h: L-glufosinate 150, haloxyfop 50) was 5%, the “% control” value (Table 7, 7 DAA, g ai/h: L-glufosinate 150, haloxyfop 50) was 13.3% and the “% control” value (Table 7, 14 DAA, g ai/h: L-glufosinate 150, haloxyfop 50) was 15%. The “% control” value (Table 7, 21 DAA, g ai/h: L-glufosinate 150, haloxyfop 50) was 12.3%, the “% control” value (Table 7, 28 DAA, g ai/h: L-glufosinate 150, haloxyfop 50) was 12.3% and the “% control” value (Table 7, 35 DAA, g ai/h: L-glufosinate 150, haloxyfop 50) was 12.3%.
In the case of CCc1cnc(C2=NC(C)(C(C)C)C(=O)N2)c(C(=O)O)c1 (stereo not shown) [Imazethapyr, imazethapyr], the Control % [1] is reported as 10%, the Control % [2] is reported as 20.0% and the Control % [3] is reported as 20.0%. For the same compound, the Control % [4] was 15.0%.
CCOc1cc(Oc2ccc(C(F)(F)F)cc2Cl)ccc1[N+](=O)[O-] [Oxyfluorfen, oxyfluorfen] gave a Control % [1] of 46.7%, a Control % [2] of 45.0% and a Control % [3] of 43.3%. It also gave a Control % [4] of 35.0%.
In the case of O=C(O)COc1nc(Cl)c(Cl)cc1Cl [Triclopyr, triclopyr], the “% control” value (Table 5, 7 DAA, g ai/h: L-glufosinate 150, triclopyr 288) is reported as 50% and the “% control” value (Table 5, 14 DAA, g ai/h: L-glufosinate 150, triclopyr 288) is reported as 79.3%.

— US20230115298A1, “METHOD FOR CONTROLLING THE GROWTH OF UNDESIRABLE VEGETATION” (UPL Limited, priority 2021, published 2023)
